In US20200390767A1, “Formulations of 4-(7-Hydroxy-2-isopropyl-4-oxo-4H-quinazolin-3-yl)-benzonitrile” (NOVARTIS AG, priority 2019, published 2020):
Where two headings read alike, the source gives them in different places.

Tests used:
[1] = test system: postoperative ocular pain in patients undergoing photorefractive keratectomy (PRK) surgery; assay: PRK clinical study, oral rescue medication use; format: in vivo, human
Description: Rescue medication consisted of oral analgesic (acetaminophen 300 mg+codeine 30 mg) as needed up to a total of 10 tabs/day or 1-2 tabs every 4 hours.
After 36 hours post-operation, the same number of patients took ORM in compound I vs. Vehicle (Table 24).

temperature sensitivity = assay: First in human study, hand immersion test at 49° C.; format: in vivo; settings: water at 49° C., MAD part
Description: Safety assessments: Safety assessments consisted of collecting all adverse events (AEs), serious adverse events (SAEs), including systemic and ocular adverse events, along with their severity and relationship to study drug. Systemic safety assessments included regular monitoring of hematology, blood chemistry and urinalysis performed at study center and regular assessments of physical examination, vital signs (systolic and diastolic blood pressure, pulse rate, and body temperature), ECG, pregnancy and assessments of fertility and hand immersion test at 49° C. during MAD part. Ocular safety assessments included early treatment diabetic retinopathy study (ETDRS) visual acuity, intraocular pressure, slit-lamp biomicroscopy, corneal staining and dilated fundus exam.
For the hand immersion test, all subjects in the treatment cohorts withdrew their hand from water at 49° C. at a time interval between 0 to ≤50 secs.

[2] = First in human study, plasma pharmacokinetics; format: in vivo
Text: Accumulation of compound I at steady-state was minor (˜1.7-fold) following administration of 0.15%, 1.5% or 2.5% suspension 4 times daily and also minor (˜1.3-fold) following 2.5% 8 times daily for 7 days.

[3] = test system: postoperative ocular pain in patients undergoing photorefractive keratectomy (PRK) surgery; assay: PRK clinical study, Ocular Pain Assessment Survey (OPAS); format: in vivo, human
Text: The Ocular Pain Assessment Survey (OPAS) is a quantitative, multidimensional questionnaire, specifically designed for assessment of corneal and ocular surface pain and Quality of Life (QoL) changes. The OPAS assesses pain intensity, frequency of eye and non-eye pain, QoL changes, aggravating factors, associated factors, and symptomatic relief quantitative, allowing for monitoring of treatment responses. See Qazi et al., Ophthalmology July 123(7):1458-1468 (2016).
The OPAS is a validated instrument for quantifying and monitoring corneal and ocular surface pain and quality of life, developed in response to an identified need from a National Eye Institute Workshop in 2010. See Qazi et al., Ophthalmology July 123(7):1458-1468 (2016). The rating scale of the overall pain severity in the OPAS from Qazi et al. rated from 0 (no pain) to 10 (severe pain) or for frequency of symptoms from 0% (never) to 100% (all the time), as per the survey. The patients were asked to fill out the OPAS survey/questionnaire at Day 2, Day 4 (at the end of treatment period with study drug) and Day 8. Statistical analysis of OPAS results was not performed.

[4] = PRK clinical study, residual compound I in bandage contact lens; format: in vivo, human; settings: Day 4; for concentration at 4 day: human, bandage contact lens extract, topical, 0.925 mg, 0.55 mL extraction fluid
Description: Compound I was quantified in plasma using a validated LC-MS/MS method; the lower limit of quantification (LLOQ) was 0.05 ng/mL. Concentrations were expressed in ng per mL units. When feasible, bandage contact lenses (BCL) exposed to study drug were collected and analyzed for residual drug exposure after treatment (LLOQ: 5.00 ng/mL in 0.55 mL of extraction fluid, or 2.75 ng/BCL). Concentrations below the LLOQ were reported as “zero” and missing data were labeled as such.
Bandage Contact Lens (BCL) was collected from 40 patients on Day 4 of the dose administration and analyzed for compound I. Values from the three IMP non-compliant patients were excluded from BCL summary statistics, leaving 37 values evaluable, including one value from a patient without available plasma PK. The mean concentration of compound I (CV %) in 0.55 mL extraction fluid was 8500 ng/mL (73.1%), with a wide range of 284 to 22600 ng/mL. These concentrations translate to an estimated mean of 4680 ng/lens (0.55 mL×8500 ng/mL), and a range of 156 to 12400 ng/lens. The amount in BCL was very small in relation to the 0.925 mg dose of compound I administered: mean 0.51%, and range of 0.017% to 1.3% of dose.

CC(C)c1nc2cc(O)ccc2c(=O)n1-c1ccc(C#N)cc1 [Compound I, 4-(7-hydroxy-2-isopropyl-4-oxo-4H-quinazolin-3-yl)-benzonitrile]
% Change (Compound I-Vehicle)/Vehicle, mg/kg of body weight ([1]; 0-6 hours post-operatively): −25% | % Change (Compound I-Vehicle)/Vehicle, number of pills ([1]; 0-6 hours post-operatively): −25% | amount of oral rescue medication, Mean (SD) ([1]; 0-6 hours post-operatively): 3.32 (4.684) mg/kg of body weight | amount of oral rescue medication, Mean (SD) ([1]; 0-6 hours post-operatively, listed as compound I): 0.75 (1.032) Number of pills | % Change (Compound I-Vehicle)/Vehicle, mg/kg of body weight ([1]; 0-12 hours post-operatively): −17% | % Change (Compound I-Vehicle)/Vehicle, number of pills ([1]; 0-12 hours post-operatively): −15% | amount of oral rescue medication, Mean (SD) ([1]; 0-12 hours post-operatively): 6.10 (8.062) mg/kg of body weight | amount of oral rescue medication, Mean (SD) ([1]; 0-12 hours post-operatively, listed as compound I): 1.40 (1.780) Number of pills | % Change (Compound I-Vehicle)/Vehicle, mg/kg of body weight ([1]; 0-24 hours post-operatively): −18% | % Change (Compound I-Vehicle)/Vehicle, number of pills ([1]; 0-24 hours post-operatively): −16% | amount of oral rescue medication, Mean (SD) ([1]; 0-24 hours post-operatively): 10.17 (12.335) mg/kg of body weight | amount of oral rescue medication, Mean (SD) ([1]; 0-24 hours post-operatively, listed as compound I): 2.35 (2.751) Number of pills | % Change (Compound I-Vehicle)/Vehicle, mg/kg of body weight ([1]; 0-48 hours post-operatively): −14% | % Change (Compound I-Vehicle)/Vehicle, number of pills ([1]; 0-48 hours post-operatively): −13% | amount of oral rescue medication, Mean (SD) ([1]; 0-48 hours post-operatively): 17.59 (19.850) mg/kg of body weight | amount of oral rescue medication, Mean (SD) ([1]; 0-48 hours post-operatively, listed as compound I): 4.05 (4.466) Number of pills | % Change (Compound I-Vehicle)/Vehicle, mg/kg of body weight ([1]; 0-72 hours post-operatively): −15% | % Change (Compound I-Vehicle)/Vehicle, number of pills ([1]; 0-72 hours post-operatively): −14% | amount of oral rescue medication, Mean (SD) ([1]; 0-72 hours post-operatively): 18.70 (21.509) mg/kg of body weight | amount of oral rescue medication, Mean (SD) ([1]; 0-72 hours post-operatively, listed as compound I): 4.33 (4.896) Number of pills | hand immersion time versus vehicle (temperature sensitivity): no meaningful change in immersion time | Accumulation at steady-state ([2]; 0.15%, 1.5% or 2.5% suspension 4 times daily): ~1.7 fold | Accumulation at steady-state ([2]; 2.5%, 8 times daily for 7 days): ~1.3 fold | increase in systemic exposure with dose ([2]; increase in dose from 0.15% to 2.5%): less than dose-proportional increase | OPAS eye pain intensity during the previous 24 hours (questions 4, 5, 6) versus Vehicle ([3]; Day 2): all 3 answers numerically favored compound I | OPAS how often eye pain with redness, burning, sensitivity to light, tearing (questions 22-25) versus Vehicle ([3]; human, in vivo): all answers favored compound I | amount in BCL in relation to the 0.925 mg dose, mean [4]: 0.51 % of dose | estimated mean amount in bandage contact lens [4]: 4680 ng/lens | concentration at 4 day ([4]; read-out: concentration of compound I in bandage contact lens extract, range): 0.284 to 22.6 µg/mL | concentration at 4 day ([4]; read-out: mean concentration of compound I in bandage contact lens extract): 8.5 µg/mL
